Assay results taken from publication PMC10525135, “Computationally Designed AMPs with Antibacterial and Antibiofilm Activity against MDR Acinetobacter baumannii” (Antibiotics, 2023).
≈ marks a conversion by molar mass, not a printed value. Where two headings read alike, the source gives them in different places. Marks after values point to notes of the source that are not given here. Values belong to the compound of their own block, whether it stands above or below them. Residues, ends and D or L forms follow the SMILES beside them. No end group written: not given here.

Legend:
[1] = system: A. baumannii AB5075 (MRSN959); format: cell-based, Acinetobacter baumannii
Protocol: (§1) Minimum inhibitory concentration (n = 3) was performed according to the CLSI protocols with a minor modification, in which Difco Mueller Hinton broth (BD 275730, Franklin Lakes, NJ, USA) was used instead of cation-adjusted Mueller Hinton broth following Wiegand et al.’s standardized protocol for testing AMPs. Bacteria were grown overnight in an opaque colony, and the concentration was determined using McFarland’s technique. An aliquot of 50 µL of 1 × 10^6 CFU/mL of bacteria was incubated with a decreasing series of peptide concentration to achieve a final bacterial concentration of 5 × 10^5 CFU/mL at 37 °C 5% CO2 for 20–24 h in Difco Mueller Hinton broth. Dilutions were performed in a 96-well polypropylene plate (Corning 3879, Corning, NY, USA). This is critical to avoid peptide binding to the plate. Results were obtained by measuring bacterial growth at OD600 nm. LL-37 and polymyxin B were used as positive controls. Samples containing only the medium and medium with peptides were used as the sterility controls and samples containing only bacteria in MHB served as the growth control. Each experiment was performed twice, and one representative experiment is shown.

[2] = system: A. baumannii strains AB5075, BAA-1710, -1794, and -1800; format: cell-based, Acinetobacter baumannii
Protocol: as §1

A. baumannii BAA-1794 = format: cell-based, Acinetobacter baumannii
Protocol: as §1

A. baumannii BAA-1800 = format: cell-based, Acinetobacter baumannii
Protocol: as §1

A. baumannii BAA-1710 = format: cell-based, Acinetobacter baumannii
Protocol: as §1

[3] = system: A. baumannii BAA-1800 biofilm
Protocol: The MBIC assay measures the lowest concentration of a compound that inhibits the biofilm formation of an organism. A series of decreasing peptide concentrations starting from 64 μg/mL to 0.25 μg/mL (100 µL) were incubated with 1 × 10^5 CFU of A. baumannii in 100 µL of Tryptic Soy broth (TSB) in a polystyrene 96-well plate (Falcon 353072, Corning, NY, USA) for 24 h at 37 °C to assess biofilm formation inhibition, as described previously with minor modifications. After the incubation of bacteria with AMPs, OD600 nm was measured for approximate bacterial growth. Media were carefully removed, and wells (n = 3) were rinsed with tap water. Plates were heat-fixed at 70 °C for 1 h, and 200 µL of 0.1% crystal violet diluted in deionized water were added to wells and allowed to incubate for 15 min. Excess stain was rinsed off with tap water, and the plates were air-dried. After that, 200 µL of 33% glacial acetic acid was added to resolubilize the stain, and biofilm mass was measured by a spectrophotometric reading at OD590. Bacteria alone (no treatment) served as the 100% biofilm control, and media alone and media with a peptide/drug were used as the sterility control and the 0% biofilm control.

[4] = system: AB5075 pre-formed (24 h) biofilm; format: cell-based, Acinetobacter baumannii
Protocol: The MBEC assay measures the lowest concentration of an antimicrobial agent that can eradicate established biofilms. Using the MBEC assay in the Biofilm Inoculator 96-well base (Innovotech Cat #1911, Edmonton, AB, Canada) and following the manufacturer’s protocol, 150 µL (n = 6) of 1 × 10^6 CFU/mL of AB5075 in TSB was incubated for 24 h at 37 °C at 110 rpm for biofilm formation. The lid containing pegs was rinsed with sterile PBS for 5 min, and then the lid was placed in a peptide challenge polypropylene 96-well plate containing a decreasing series of drug concentrations and incubated for 24 h at 37 °C at 110 rpm. Pegs were washed three times with tap water, heat-fixed for 70 °C for 1 h, and stained with 0.1% crystal violet for 15 min. Excess stain was rinsed off with tap water and allowed to dry. Stained pegs were resolubilized with 200 µL of 33% glacial acetic acid. OD590 was obtained to measure the remaining biofilm. Pegs with only bacteria served as the growth control and 100% biofilm control. Media alone and media with a peptide/drug served as the sterility controls. […] The experiment was performed twice.

AB5075 = system: AB5075
Protocol: Bacteria were grown in 1 mL of MHB for 24 h. Experimental tubes that show growth in the presence of peptide/drug concentration were diluted 1:100. […] Colistin is reported to induce resistance within approximately 5–7 days for A. baumannii.

[5] = system: defibrinated human red blood cells; test: Hemolysis; format: cell-based; conditions: 2% hRBC in PBS, 1 h 37 °C, OD540, relative to Triton X-100, n = 3
Protocol: To measure the hemolytic activity of peptides, 2% human red blood cells were added to various dilutions of peptide reconstituted in PBS in a sterile U-bottom polypropylene 96-well plate following a protocol developed in our laboratory Briefly, defibrinated human blood was obtained from de-identified healthy donors from BioIVT (Westbury, NY, USA). An aliquot (1 mL) of blood was centrifuged at 1600× g for 10 min and plasma was discarded, and then 1 mL of sterile 1× PBS (HyClone) was used to wash red blood cells at least three times. In the last wash step, the supernatant was discarded, and the pallet was resuspended with 750 µL of sterile PBS. RBC suspension (2% RBC) was prepared by adding 200 µL of washed RBCs to 9.8 mL of sterile 1× PBS. A total of 50 µL of 2% RBCs were added to each well (n = 3) containing diluted peptides, resulting in a final peptide concentration of 100, 10, and 1 μg/mL. A total of 2% RBCs with 1× PBS alone served as the negative control (no peptide), and 2% RBC in Triton X-100 served as the positive control. The plate was incubated for 1 h at 37 °C and then centrifuged at 1000 rpm for 2 min. The supernatant was transferred to a fresh 96-well plate (tissue culture-treated Falcon 353072) and read at OD540. The percentage of hemolysis was calculated based on the 100% hemolysis control (Triton X-100). The experiment was repeated twice.

[6] = A. baumannii BAA-1800, TSB, 24 h 37 °C, crystal violet
[7] = A. baumannii BAA-1800, TSB, polystyrene plate, 24 h 37 °C, crystal violet OD590, n = 3
[8] = MBEC100, AB5075 24 h pre-formed biofilm on pegs, 24 h challenge, crystal violet OD590, n = 6
[9] = summary over MDR A. baumannii strains of Table 3
[10] = A. baumannii BAA-1794, Difco Mueller Hinton broth, 5 × 10^5 CFU/mL, 37 °C 5% CO2, 20–24 h, OD600, n = 3
[11] = A. baumannii BAA-1710, Difco Mueller Hinton broth, 5 × 10^5 CFU/mL, 37 °C 5% CO2, 20–24 h, OD600, n = 3
[12] = AB5075 passaged with subinhibitory drug

MIC ([1]; AB5075 (MRSN959)): 16 µg/mL
MIC across the tested strains ([2]; BAA-1710): 16 µg/mL
MIC (A. baumannii BAA-1794; BAA-1794): 16 µg/mL
MIC (A. baumannii BAA-1800; BAA-1800): 16 µg/mL
MIC (A. baumannii BAA-1710; BAA-1710): 16 µg/mL
Compound: FLKKIWKLLGKLL-NH2 [HRZN-16]

MIC ([1]; AB5075 (MRSN959)): 32 µg/mL
MIC across the tested strains ([2]; BAA-1710): 32 µg/mL
MIC (A. baumannii BAA-1794; BAA-1794): 32 µg/mL
MIC (A. baumannii BAA-1800; BAA-1800): 32 µg/mL
MIC (A. baumannii BAA-1710; BAA-1710): 32 µg/mL
Compound: KLWKLLKKLGRLL-NH2 [HRZN-17]

MIC across the tested strains ([2]; BAA-1710): 16 to 64 µg/mL
MIC (A. baumannii BAA-1794; BAA-1794): 64 µg/mL
MIC (A. baumannii BAA-1800; BAA-1800): 32 µg/mL
MIC (A. baumannii BAA-1710; BAA-1710): 32 µg/mL
Compound: FLWRISKFLGRKL-NH2 [HRZN-14]

Compound: FLPWISKFLGKIL-NH2 [HRZN-15]
MBIC50 ([3]; BAA-1800, 24 h): ~ 4 µg/mL
MBIC100 ([3]; BAA-1800, 24 h): 8 µg/mL
MBEC ([4]; 24 h): 16 µg/mL
MBEC50 ([4]; 24 h): 8 µg/mL
MIC across the tested strains ([2]; BAA-1710): 4 µg/mL
MIC (A. baumannii BAA-1794; BAA-1794): 4 µg/mL
MIC (A. baumannii BAA-1800; BAA-1800): 4 µg/mL
MIC (A. baumannii BAA-1710; BAA-1710): 4 µg/mL
MIC at the 10th passage (AB5075; AB5075 passaged with peptide): 8 µg/mL

Compound: VRLIVAVRIWRR-NH2 [IDR-1018]
MBIC50 [3, 6]: ~ 32 µg/mL
MBIC100 [3, 7]: >64 * µg/mL
MBEC [4, 8]: >32 µg/mL

Compound: CC[C@H](C)[C@H](NC(=O)[C@H](CCCCN)NC(=O)[C@H](CCC(=O)O)NC(=O)[C@H](CCCCN)NC(=O)[C@H](CO)NC(=O)[C@H](CCCCN)NC(=O)[C@H](CCCNC(=N)N)NC(=O)[C@H](Cc1ccccc1)NC(=O)[C@H](Cc1ccccc1)NC(=O)[C@H](CC(=O)O)NC(=O)CNC(=O)[C@H](CC(C)C)NC(=O)[C@@H](N)CC(C)C)C(=O)NCC(=O)N[C@@H](CCCCN)C(=O)N[C@@H](CCC(=O)O)C(=O)N[C@@H](Cc1ccccc1)C(=O)N[C@@H](CCCCN)C(=O)N[C@@H](CCCNC(=N)N)C(=O)N[C@H](C(=O)N[C@H](C(=O)N[C@@H](CCC(N)=O)C(=O)N[C@@H](CCCNC(=N)N)C(=O)N[C@H](C(=O)N[C@@H](CCCCN)C(=O)N[C@@H](CC(=O)O)C(=O)N[C@@H](Cc1ccccc1)C(=O)N[C@@H](CC(C)C)C(=O)N[C@@H](CCCNC(=N)N)C(=O)N[C@@H](CC(N)=O)C(=O)N[C@@H](CC(C)C)C(=O)N[C@H](C(=O)N1CCC[C@H]1C(=O)N[C@@H](CCCNC(=N)N)C(=O)N[C@H](C(=O)N[C@@H](CCC(=O)O)C(=O)N[C@@H](CO)C(=O)O)[C@@H](C)O)C(C)C)[C@@H](C)CC)C(C)C)[C@@H](C)CC [LL-37]
MBIC50 [3, 6]: ~ 32 µg/mL
MBIC100 [3, 7]: 64 µg/mL
Hemolysis ([5]; 10 µg/mL): 5.4%
Hemolysis ([5]; 100 µg/mL): 22%
MBEC50 ([4]; AB5075 24 h pre-formed biofilm, crystal violet): 4 µg/mL
MBEC [4, 8]: ~32 µg/mL
MIC across the tested strains [2, 9]: 8 to 32 µg/mL
MIC (A. baumannii BAA-1794; [10]): 16 to 32 µg/mL
MIC (A. baumannii BAA-1794; A. baumannii BAA-1794, experiment shown in Figure S4): 32 µg/mL (≈ 7.12 µM)
MIC (A. baumannii BAA-1710; [11]): 32 µg/mL (≈ 7.12 µM)

Compound: FLWRISKFLGKKL-NH2 [HRZN-13]
Hemolysis ([5]; 100 µg/mL): 0.7%
MIC ([1]; A. baumannii AB5075 (MRSN959), Difco Mueller Hinton broth, 5 × 10^5 CFU/mL, 37 °C 5% CO2, 20–24 h, OD600, n = 3): 32 µg/mL
MIC across the tested strains [2, 9]: 32 to 64 µg/mL
MIC (A. baumannii BAA-1794; [10]): 64 µg/mL
MIC (A. baumannii BAA-1800; A. baumannii BAA-1800, Difco Mueller Hinton broth, 5 × 10^5 CFU/mL, 37 °C 5% CO2, 20–24 h, OD600, n = 3): 64 µg/mL
MIC (A. baumannii BAA-1710; [11]): 32 µg/mL

Compound: CC[C@H](C)CCCCC(=O)N[C@@H](CCN)C(=O)N[C@H](C(=O)N[C@@H](CCN)C(=O)N[C@H]1CCNC(=O)[C@H]([C@@H](C)O)NC(=O)[C@H](CCN)NC(=O)[C@H](CCN)NC(=O)[C@H](CC(C)C)NC(=O)[C@@H](CC(C)C)NC(=O)[C@H](CCN)NC1=O)[C@@H](C)O [colistin] (HELM PEPTIDE1{[CC[C@H](C)CCCCC(=O)[*:2]].[Dab].T.[Dab].[Dab].[Dab].[dL].L.[Dab].[Dab].T}$PEPTIDE1,PEPTIDE1,5:R3-11:R2$$$V2.0; N-terminus assumed; bridges inferred)
MIC fold change reached, compared to the initial growth-inhibitory concentration (AB5075; AB5075, exposure for 15 days): 512 × MIC
MIC before exposure (AB5075; AB5075, initial MIC (passage 0)): 0.5 µg/mL (≈ 0.428 µM)
MIC after the fifth day of exposure (AB5075; [12]): 64 µg/mL
MIC fold change after the fifth day (AB5075; [12]): 128 MIC fold
